Test results as given in PMC3205185, “Identification of a Eukaryotic Reductive Dechlorinase and Characterization of Its Mechanism of Action on Its Natural Substrate” (Chemistry & Biology, 2011).
Substitutions are numbered along the chain they refer to.

Assays:
DrcA (ΔNC16NDrcA) [1] = biological target: T1, DrcA (ΔNC16NDrcA) (Dictyostelium discoideum, UniProt Q54B85, C54N); assay: dechlorination assay with purified mutant, TLC and Orbitrap MS of the conjugates; format: biochemical
T1 construct: gene DDB_G0293840; ΔNDrcA, lacking the first 38 residues
T1 sequence (Q54B85 39-275 C54N): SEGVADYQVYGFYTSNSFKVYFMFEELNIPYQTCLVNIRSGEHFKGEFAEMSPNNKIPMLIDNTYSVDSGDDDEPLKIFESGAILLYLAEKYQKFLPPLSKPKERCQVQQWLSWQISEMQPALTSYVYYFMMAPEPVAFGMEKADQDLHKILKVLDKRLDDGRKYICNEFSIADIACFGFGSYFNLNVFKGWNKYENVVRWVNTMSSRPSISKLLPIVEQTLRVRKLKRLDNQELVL

[2] = biological target: T2, DrcA (DIF-1 dechlorinase) (Dictyostelium discoideum, UniProt Q54B85); assay: DIF-1 dechlorination assay with TLC, purified protein; further dechlorinated at higher enzyme or longer incubation; format: biochemical
T2 construct: gene DDB_G0293840
T2 sequence (Q54B85 1-275): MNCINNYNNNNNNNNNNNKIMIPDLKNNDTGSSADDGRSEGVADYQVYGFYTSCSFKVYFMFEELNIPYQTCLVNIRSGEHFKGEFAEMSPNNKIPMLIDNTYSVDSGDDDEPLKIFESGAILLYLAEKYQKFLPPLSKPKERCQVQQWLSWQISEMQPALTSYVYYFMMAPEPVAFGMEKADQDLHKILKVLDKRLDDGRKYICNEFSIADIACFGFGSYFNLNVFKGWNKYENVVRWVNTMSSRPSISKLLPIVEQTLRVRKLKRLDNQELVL

DrcA (ΔNC16NDrcA) [3] = biological target: T1, DrcA (ΔNC16NDrcA); assay: TLC time course and Orbitrap MS of products of the purified mutant; further converted to GS-DIF-GS; format: biochemical
[4] = substrate: CCCCCC(=O)c1c(O)c(Cl)c(OC)c(Cl)c1O; assay: radioactive [3H]DIF-1 dechlorination assay with TLC, Michaelis-Menten kinetics, purified enzyme (Km); format: biochemical, Dictyostelium discoideum; settings: glutathione glutathione attacks the carbon-chlorine bond to give a GS-DIF conjugate, which is resolved by Cys54

Molecule: CCCCCC(=O)c1c(O)c(Cl)c(OC)c(Cl)c1O [DIF-1]
- dechlorination assay with purified mutant, TLC and Orbitrap MS of the conjugates (DrcA (ΔNC16NDrcA) [1]): although DIF-1 was consumed in the assay, DIF-3 was not produced

Molecule: CCCCCC(=O)c1c(O)cc(OC)c(Cl)c1O [DIF-3]
- DIF-1 dechlorination assay with TLC, purified protein; further dechlorinated at [2]: only appears after all DIF-1 has been converted into the monochlorinated form, suggesting a lower affinity

Molecule: CCCCCC(=O)c1c(O)c(Cl)c(OC)c(SC[C@H](NC(=O)CC[C@H](N)C(=O)O)C(=O)NCC(=O)O)c1O [GS-DIF]
- TLC time course and Orbitrap MS of products of the purified mutant; further conv (DrcA (ΔNC16NDrcA) [3]): ΔNC16NDrcA must be able to accommodate the conjugate GS-DIF to attack the second carbon-chlorine bond

B1: DrcA (DIF-1 dechlorinase) (Dictyostelium discoideum) (protein)
chain: T1 sequence (Q54B85 39-275 C54N) with N16C
notes: ΔNDrcA, lacking the first 38 residues, C-terminal 6×His tag
- Km [4]: 0.088 ± 0.0175 µM
- kcat [4]: 6.7 s⁻¹
- kcat/Km [4]: 7.6e+07 M⁻¹ s⁻¹
